Reference: patent US20260125400A1, “TYK2 DEGRADERS AND USES THEREOF” (Kymera Therapeutics, Inc., priority 2023, published 2026)
Where two headings read alike, the source gives them in different places.

Molecular target: T1, TYK2 (Homo sapiens, UniProt P29597)
T1 construct: Degradation of TYK2 in cells was quantitatively measured using Meso Scale Discovery (MSD) technology; endogenous in cells; host or cells: OCI-LY10
Test: TYK2 MSD degradation in OCI-LY10 cells
Type: cell-based
Conditions: 4 to 24 hours incubation; for DC50: read-out: TYK2 MSD OCI-LY10 Rel-DC50
Method in brief: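 Cellular TYK2 levels were measured by Meso Scale Discovery sandwich detection in RIPA lysates of OCI-LY10 cells exposed 4 to 24 hours at 37° C to nine 1:3 compound doses starting at 1 to 10 μM final; dose-response fitted by four-parameter regression.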

[1] = TYK2 degradation in OCI-LY10 cells

T1 sequence (P29597 whole entry): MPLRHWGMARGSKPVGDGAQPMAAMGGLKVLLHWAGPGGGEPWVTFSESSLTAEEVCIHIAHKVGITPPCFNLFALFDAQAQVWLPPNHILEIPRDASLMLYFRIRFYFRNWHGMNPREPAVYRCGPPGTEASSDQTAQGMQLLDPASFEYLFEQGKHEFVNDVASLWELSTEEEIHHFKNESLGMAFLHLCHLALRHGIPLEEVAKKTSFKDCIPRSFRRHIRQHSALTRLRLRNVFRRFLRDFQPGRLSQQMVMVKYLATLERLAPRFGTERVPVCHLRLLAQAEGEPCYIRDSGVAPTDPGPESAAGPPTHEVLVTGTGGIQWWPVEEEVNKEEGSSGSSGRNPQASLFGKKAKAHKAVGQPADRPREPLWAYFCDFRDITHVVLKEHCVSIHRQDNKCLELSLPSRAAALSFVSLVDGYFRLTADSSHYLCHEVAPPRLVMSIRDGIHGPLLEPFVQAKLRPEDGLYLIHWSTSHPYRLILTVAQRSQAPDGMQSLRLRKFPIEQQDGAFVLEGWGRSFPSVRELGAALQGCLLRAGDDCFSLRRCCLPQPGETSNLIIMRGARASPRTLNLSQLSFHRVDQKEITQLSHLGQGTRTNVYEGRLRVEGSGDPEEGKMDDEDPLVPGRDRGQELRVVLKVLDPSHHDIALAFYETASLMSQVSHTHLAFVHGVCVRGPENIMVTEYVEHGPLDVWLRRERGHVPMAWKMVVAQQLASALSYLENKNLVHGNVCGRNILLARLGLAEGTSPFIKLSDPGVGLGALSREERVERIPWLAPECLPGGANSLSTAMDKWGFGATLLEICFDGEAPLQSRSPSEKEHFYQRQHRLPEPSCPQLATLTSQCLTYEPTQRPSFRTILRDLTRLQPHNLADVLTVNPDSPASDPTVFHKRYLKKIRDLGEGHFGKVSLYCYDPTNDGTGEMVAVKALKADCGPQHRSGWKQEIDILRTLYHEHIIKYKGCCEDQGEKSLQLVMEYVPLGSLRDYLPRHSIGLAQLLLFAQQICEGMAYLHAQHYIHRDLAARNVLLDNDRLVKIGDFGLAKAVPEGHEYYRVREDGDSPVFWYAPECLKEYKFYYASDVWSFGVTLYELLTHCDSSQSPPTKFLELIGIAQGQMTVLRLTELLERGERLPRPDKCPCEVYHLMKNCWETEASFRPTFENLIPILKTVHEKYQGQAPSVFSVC

Row | Compound | TYK2 MSD OCI-LY10 Dmax % [1] | DC50 [1] [nM] | TYK2 MSD OCI-LY10 Dmax % (OCI-LY10 cells) | DC50 (OCI-LY10 cells) [nM] | Dmax [1] [%]
1 | CNc1cc(N2CCc3c(-c4ccc(CN5CCC(N6CCN(c7ccc8c(c7)n(C)c(=O)n8C7CCC(=O)NC7=O)CC6)CC5)cn4)cccc32)nn2c(C(=O)N[C@@H]3C[C@@H]3F)cnc12 (stereo partly shown) [I-1] | B (B (90 to >75%)) | < 1 |  |  | 
2 | CNc1cc(N2CCc3c(CN4CCC(N5CCC6(CCN(C(=O)c7cc(F)c(OC)c(N8CCC(=O)NC8=O)c7)CC6)CC5)C(F)(F)C4)cccc32)nn2c(C(=O)N[C@@H]3C[C@@H]3F)cnc12 (stereo partly shown) [I-769] |  |  | B (B (90 to >75%)) | < 10 | 
3 | CNc1cc(N2CCc3c(-c4ncc(CN5CC6(CCN(C(=O)c7ccc(C)c(N8CCC(=O)NC8=O)c7)CC6(F)F)C5)cc4F)cccc32)nn2c(C(=O)N[C@@H]3CC[C@H]3OC)cnc12 [I-1004] | A (A (>90%)) | < 1 |  |  | 
4 | CNc1cc(N2CCc3c(-c4ccc(CN5CCC6(CCN(C(=O)c7cc(C)c(Cl)c(N8CCC(=O)NC8=O)c7)CC6)C(F)(F)C5)cn4)cc(F)cc32)nn2c(C(=O)N[C@@H]3C[C@@H]3F)cnc12 [I-815] | B (B (90 to >75%)) | < 10 |  |  | 
5 | CNc1cc(N2CCc3c(-c4ccc(CN5CCC6(CC5)CCN(c5ccc(N7CCC(=O)NC7=O)c(Cl)c5)CC6)cn4)cccc32)nn2c(C(=O)N[C@@H]3C[C@@H]3F)cnc12 [I-74] | D (D (<50%)) | < 10 |  |  | 
6 | CNc1cc(N2CCc3c(-c4ncc(CN5CC6(CCN(C(=O)c7ccc(Cl)c(N8CCC(=O)NC8=O)c7)CC6(F)F)C5)cc4F)cccc32)nn2c(C(=O)N[C@@H]3C[C@@H]3F)cnc12 [I-1023] | A (A (>90%)) | < 1 |  |  | 
7 | CNc1cc(N2CCc3c(-c4ccc(CN5CC6(CCN(C(=O)c7ccc(OC)c(N8CCC(=O)NC8=O)c7)CC6)C5)cn4)cccc32)nn2c(C(=O)N[C@@H]3C[C@@H]3F)cnc12 [I-64] | A (A (>90%)) | < 1 |  |  | 
8 | CNc1cc(N2CCc3c(CN4CCC5(CC4)CCN(C(=O)c4ccc(Cl)c(N6CCC(=O)NC6=O)c4)CC5)cccc32)nn2c(C(=O)NC3CC3)cnc12 [I-58] | D (D (<50%)) | > 100 |  |  | 
9 | CNc1cc(N2CCc3c(-c4ncc(CN5CC6(CCN(C(=O)c7ccc(OC)c(N8CCC(=O)NC8=O)c7)CC6(F)F)C5)cc4F)cccc32)nn2c(C(=O)N[C@@H]3C[C@@H]3F)cnc12 [I-1019] | A (A (>90%)) | < 1 |  |  | 
10 | CNc1cc(N2CCc3c(-c4ccc(CN5CCN(Cc6ccc(C7CCC(=O)NC7=O)c(Cl)c6)CC5)cn4)cccc32)nn2c(C(=O)N[C@@H]3C[C@@H]3F)cnc12 (stereo partly shown) [I-374] | D (D (<50%)) | < 10 |  |  | 
11 | CNc1cc(N2CC3(CCN(c4cccc5c4n(C)c(=O)n5C4CCC(=O)NC4=O)CC3)c3ccccc32)nn2c(C(=O)NC3CC3)cnc12 (stereo not shown) [I-51] | D (D (<50%)) | > 100 |  |  | 
12 | CNc1cc(N2CCc3c(N4CCC(CN5CC6(CCN(Cc7ccc(Cl)c(N8CCC(=O)NC8=O)c7)CC6(F)F)C5)CC4)cccc32)nn2c(C(=O)N[C@@H]3C[C@@H]3F)cnc12 [I-899] | D (D (<50%)) | > 100 |  |  | 
13 | CNc1cc(N2CCc3c(-c4ccc(CN5CCC6(CCC(N(C)c7ccc(Cl)c(N8CCC(=O)NC8=O)c7)CC6)CC5)cn4)cccc32)nn2c(C(=O)N[C@@H]3CC[C@H]3OC)cnc12 [I-1009] | B (B (90 to >75%)) | < 10 |  |  | 
14 | CNc1cc(N2CCc3c(-c4ccc(CN5CC6(CCN(C(=O)c7cc(Cl)c(C)c(N8CCC(=O)NC8=O)c7)CC6(F)F)C5)cn4)cccc32)nn2c(C(=O)N[C@@H]3C[C@@H]3F)cnc12 [I-634] |  |  | A (A (>90%)) | < 1 | 
15 | CNc1cc(N2CCc3c(-c4ccc(CN5CCC6(CCN(C(=O)c7cc(C)c(Cl)c(N8CCC(=O)NC8=O)c7)CC6)C(F)(F)C5)cn4)cccc32)nn2c(C(=O)N[C@@H]3C[C@@H]3F)cnc12 [I-655] |  |  | B (B (90 to >75%)) | < 10 | 
16 | CNc1cc(N2CCc3c(-c4ncc(CN5CC6(CCN(C(=O)c7cc(F)c(C)c(N8CCC(=O)NC8=O)c7)CC6(F)F)C5)cc4F)cccc32)nn2c(C(=O)N[C@@H]3C[C@@H]3F)cnc12 [I-1016] | A (A (>90%)) | < 1 |  |  | 
17 | CNc1cc(N2CCc3c(-c4ccc(CN5CCC6(CCN(C(=O)c7ccc(Cl)c(N8CCC(=O)NC8=O)c7)C6)C5)cn4)cccc32)nn2c(C(=O)NC3CC3F)cnc12 (stereo not shown) [I-302] | C (C (75 to 50%)) | < 1 |  |  | 
18 | CNc1cc(N2CCc3c(-c4ccc(CC5CCC6(CC5)CCN(C(=O)c5cc(C)c(Cl)c(N7CCC(=O)NC7=O)c5)CC6)cn4)cccc32)nn2c(C(=O)N[C@@H]3CC[C@H]3OC)cnc12 [I-1107] | A (A (>90%)) | < 10 |  |  | 

Row | Compound | TYK2 MSD OCI-LY10 Dmax % [1] | DC50 [1] [nM] | TYK2 MSD OCI-LY10 Dmax % (OCI-LY10 cells) | DC50 (OCI-LY10 cells) [nM] | Dmax [1] [%]
19 | CNc1cc(N2CCc3c(-c4ncc(CN5CC6(CCN(C(=O)c7cc(C)c(Cl)c(N8CCC(=O)NC8=O)c7)CC6(F)F)C5)cc4F)cc(F)cc32)nn2c(C(=O)N[C@@H]3C[C@@H]3F)cnc12 [I-946] | A (A (>90%)) | < 1 |  |  | 
20 | CNc1cc(N2CCc3c2cccc3C23CC(CN4CC5(CCN(C(=O)c6ccc(Cl)c(N7CCC(=O)NC7=O)c6)CC5(F)F)C4)(C2)C3)nn2c(C(=O)N[C@@H]3C[C@@H]3F)cnc12 [I-897] | B (B (90 to >75%)) | < 10 |  |  | 
21 | CNc1cc(N2CCc3c(CC4CCC(N5CCC(N6CCN(C(=O)c7ccc(Cl)c(N8CCC(=O)NC8=O)c7)CC6)C(F)(F)C5)CC4)cccc32)nn2c(C(=O)NC3CC3F)cnc12 (stereo not shown) [I-708] |  |  | D (D (<50%)) | < 1 | 
22 | CNc1cc(N2CCc3c(-c4cc(CN5CCN(c6noc7cc(N8CCC(=O)NC8=O)ccc67)CC5)ccn4)cccc32)nn2c(C(=O)N[C@@H]3C[C@@H]3F)cnc12 [I-723] |  |  | D (D (<50%)) | > 100 | 
23 | CNc1cc(N2CC3(CCN(Cc4cccc5c4n(C)c(=O)n5C4CCC(=O)NC4=O)CC3)c3ccccc32)nn2c(C(=O)NC3CC3)cnc12 (stereo not shown) [I-52] | D (D (<50%)) | > 100 |  |  | 
24 | CNc1cc(N2CCc3c(-c4ccc(CN5CCC6(CCN(C(=O)c7cc(Cl)cc(N8CCC(=O)NC8=O)c7)CC6)C(F)(F)C5)cn4)cccc32)nn2c(C(=O)N[C@@H]3C[C@@H]3F)cnc12 [I-835] | B (B (90 to >75%)) | < 10 |  |  | 
25 | CNc1cc(N2CCc3c(-c4ccc(CN5CCC6(CCN(C(=O)c7ccc(Cl)c(N8CCC(=O)NC8=O)c7)CC6)C(F)(F)C5)cn4)cccc32)nn2c(C(=O)N[C@H]3CC[C@@H]3C(F)(F)F)cnc12 [I-1103] | D (D (<50%)) | 10 to 100 |  |  | 
26 | CNc1cc(N2CCc3c([C@@H](C)N4CC[C@H](N5CCC6(CCN(C(=O)c7cc(C)c(Cl)c(N8CCC(=O)NC8=O)c7)CC6)CC5)C(F)(F)C4)cccc32)nn2c(C(=O)N[C@@H]3CC[C@H]3OC)cnc12 [I-1128] | A (A (>90%)) | < 1 |  |  | 
27 | CNc1cc(N2CCc3c(CN4CCC(N5CCC6(CCN(C(=O)c7cc(Cl)c(C)c(N8CCC(=O)NC8=O)c7)CC6)CC5)C(F)(F)C4)cccc32)nn2c(C(=O)NC3CCC3OC)cnc12 (stereo not shown) [I-1000] | A (A (>90%)) | < 1 |  |  | 
28 | CNc1cc(N2CCc3c(CN4CCC(N5CCC6(CCN(C(=O)c7ccc(Cl)c(N8CCC(=O)NC8=O)c7)CC6)CC5)C(F)(F)C4)cccc32)nn2c(C(=O)N[C@@H]3C[C@@H]3F)cnc12 (stereo partly shown) [I-361] | B (B (90 to >75%)) | < 1 |  |  | 
29 | CNc1cc(N2CCc3c(CN4CCC(N5CCC6(CCN(C(=O)c7cc(Cl)c(OC)c(N8CCC(=O)NC8=O)c7)CC6)CC5)C(F)(F)C4)cccc32)nn2c(C(=O)N[C@@H]3C[C@@H]3F)cnc12 (stereo partly shown) [I-764] |  |  | B (B (90 to >75%)) | < 10 | 
30 | CNc1cc(N2CCc3c(-c4ccc(CN5CCC6(CCN(Cc7ccc(Cl)c(N8CCC(=O)NC8=O)c7)CC6)C(F)(F)C5)cn4)cccc32)nn2c(C(=O)NC3CC3)cnc12 [I-363] | D (D (<50%)) | > 100 |  |  | 
31 | CNc1cc(N2CCc3c(-c4ccc(CN5CCC6(CCN(Cc7ccc(Cl)c(N8CCC(=O)NC8=O)c7)CC6)C(F)(F)C5)cn4)cccc32)nn2c(C(=O)N[C@@H]3C[C@@H]3F)cnc12 [I-289] | D (D (<50%)) | > 100 |  |  | 
32 | CNc1cc(N2CCc3c(CN4CCC5(CCN(C6CCN(C(=O)c7ccc(Cl)c(N8CCC(=O)NC8=O)c7)CC6)CC5)C(F)(F)C4)cccc32)nn2c(C(=O)N[C@@H]3C[C@@H]3F)cnc12 [I-836] | B (B (90 to >75%)) | < 10 |  |  | 
33 | CNC(=O)c1cnc(Nc2ccc(C(=O)NCCOCCOCCOCCOCCN(C(=O)[C@H]3CCCN(c4cncc5ccccc45)C3)c3ccc(=O)n(CC(=O)OC)c3)cn2)cc1Nc1cccc(-c2ncccn2)c1OC [I-912, Methyl (S)-2-(5-(1-(isoquinolin-4-yl)-N-(1-(6-((4-((2-methoxy-3-(pyrimidin-2-yl)phenyl)amino)-5-(methylcarbamoyl)pyridin-2-yl)amino)pyridin-3-yl)-1-oxo-5,8,11,14-tetraoxa-2-azahexadecan-16-yl)piperidine-3-carboxamido)-2-oxopyridin-1(2H)-yl)acetate] |  | > 100 |  |  | < 50
34 | CNc1cc(N2CCc3c(-c4ccc(CN5CCC6(CCN(C(=O)c7ccc(Cl)c(N8CCC(=O)NC8=O)c7)CC6)C(F)(F)C5)cn4)cccc32)nn2c(C(=O)NC3CC(C(F)(F)F)C3)cnc12 (stereo not shown) [I-1118] | C (C (75 to 50%)) | 10 to 100 |  |  | 
35 | CNc1cc(N2CCc3c(-c4ccc(CN5CCC(N6CC(N7CCN(c8cccc9c8n(C)c(=O)n9C8CCC(=O)NC8=O)CC7)C6)C(F)(F)C5)cn4)cccc32)nn2c(C(=O)N[C@@H]3C[C@@H]3F)cnc12 (stereo partly shown) [I-277] | B (B (90 to >75%)) | < 1 |  |  | 
